In US11603373B2, “TDO2 and IDO1 inhibitors” (Genentech, Inc., priority 2017, dated 2023):

Key:
[1] = target: T1, TDO2 (SW48 cells, high TDO expressing cells) (Homo sapiens, UniProt P48775); assay: NFK GreenScreen cell assay, inhibition of TDO in SW48 cells; assay type: cell-based; conditions: read-out: TDO2 Cell Fluor EC50
T1 construct: SW48 cells (high TDO expressing cells); endogenous in cells; host or cells: SW48 cells
From the text: (§1) Cells are counted on a Vi-Cell (Beckman Coulter). […] The final DMSO concentration is 0.5%.

[2] = target: T2, IDO1 (A172+IFNg cells, high IDO expressing cells) (Homo sapiens, UniProt P14902); assay: NFK GreenScreen cell assay, inhibition of IDO in A172+IFNg cells; assay type: cell-based; conditions: read-out: IDO cell Fluor EC50
T2 construct: A172+IFNg cells (high IDO expressing cells); endogenous in cells; host or cells: A172 cells induced with 100 ng/ml IFNγ
From the text: as §1

T1 sequence (P48775 whole entry): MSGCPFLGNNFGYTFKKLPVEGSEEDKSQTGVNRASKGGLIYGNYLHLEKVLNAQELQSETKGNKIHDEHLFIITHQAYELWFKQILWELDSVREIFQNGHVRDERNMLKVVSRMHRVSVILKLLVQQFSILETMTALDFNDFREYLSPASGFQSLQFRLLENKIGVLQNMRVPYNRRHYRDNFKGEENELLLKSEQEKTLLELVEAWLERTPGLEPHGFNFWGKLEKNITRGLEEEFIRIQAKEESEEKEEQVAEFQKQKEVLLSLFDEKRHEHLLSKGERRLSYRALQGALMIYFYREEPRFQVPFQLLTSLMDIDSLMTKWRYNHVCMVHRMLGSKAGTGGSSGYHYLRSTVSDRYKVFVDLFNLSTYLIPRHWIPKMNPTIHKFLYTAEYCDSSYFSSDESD
T2 sequence (P14902 whole entry): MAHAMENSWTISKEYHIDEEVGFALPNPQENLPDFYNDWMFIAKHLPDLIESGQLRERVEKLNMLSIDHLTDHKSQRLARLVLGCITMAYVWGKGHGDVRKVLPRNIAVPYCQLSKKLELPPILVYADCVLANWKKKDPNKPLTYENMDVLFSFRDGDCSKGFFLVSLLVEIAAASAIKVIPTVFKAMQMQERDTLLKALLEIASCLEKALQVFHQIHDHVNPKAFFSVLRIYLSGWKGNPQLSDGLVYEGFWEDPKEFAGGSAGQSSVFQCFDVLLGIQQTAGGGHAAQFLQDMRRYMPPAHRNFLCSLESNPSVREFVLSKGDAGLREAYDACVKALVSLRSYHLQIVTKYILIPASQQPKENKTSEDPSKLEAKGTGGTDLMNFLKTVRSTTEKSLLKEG

Row | EC50 [1] [nM] | EC50 [2] [nM] | SMILES
1 | 17000 | 8500 | CC(C)(C)OC(=O)N1CC2CCC(C1)C21C[C@@H]([C@@H]2c3ccccc3-c3cncn32)[C@@H]1O (stereo partly drawn) [Example 22e, tert-butyl (2′S,3′S)-2′-hydroxy-3′-((R)-5H-imidazo[5,1-a]isoindol-5-yl)-3-azaspiro[bicyclo[3.2.1]octane-8,1′-cyclobutane]-3-carboxylate]
2 | 1400 | 92 | CC(C)(C)OC(=O)N1CC2CCC(C1)C21C[C@H]([C@H]2c3ccccc3-c3cncn32)[C@H]1O (stereo partly drawn) [Example 22f, tert-butyl (2′R,3′R)-2′-hydroxy-3′-((S)-5H-imidazo[5,1-a]isoindol-5-yl)-3-azaspiro[bicyclo[3.2.1]octane-8,1′-cyclobutane]-3-carboxylate]
3 | 160 | 41 | CC(C)(C)OC(=O)N1CC2CCC(C1)C21C[C@H]([C@@H]2c3ccccc3-c3cncn32)[C@H]1O (stereo partly drawn) [Example 22g, tert-butyl (2′R,3′R)-2′-hydroxy-3′-((R)-5H-imidazo[5,1-a]isoindol-5-yl)-3-azaspiro[bicyclo[3.2.1]octane-8,1-cyclobutane]-3-carboxylate]
4 | 4000 | 2800 | CC(C)(C)OC(=O)N1CC2CCC(C1)C21C[C@@H]([C@H]2c3ccccc3-c3cncn32)[C@@H]1O (stereo partly drawn) [Example 22h, tert-butyl (2′S,3′S)-2′-hydroxy-3′-((S)-5H-imidazo[5,1-a]isoindol-5-yl)-3-azaspiro[bicyclo[3.2.1]octane-8,1′-cyclobutane]-3-carboxylate]
5 | 330 | 150 | O=S(=O)(C1COC1)N1CCC2(CC1)CC(C1c3ccccc3-c3cncn31)C2O (centres unmarked) [Example 23a, 2-(5H-imidazo[1,5-b]isoindol-5-yl)-7-(oxetan-3-ylsulfonyl)-7-azaspiro[3.5]nonan-3-ol]
6 | 90 | 50 | O=S(=O)(C1COC1)N1CCC2(CC1)C[C@@H]([C@H]1c3ccccc3-c3cncn31)[C@H]2O [Example 23c, (2S,3R)-2-[(5S)-5H-imidazo[1,5-b]isoindol-5-yl]-7-(oxetan-3-ylsulfonyl)-7-azaspiro[3.5]nonan-3-ol]
7 | 1100 | 1800 | CC(C)(C)OC(=O)N[C@H]1CC[C@]2(CC1)C[C@H]([C@H]1c3ccccc3-c3cncn31)[C@@H]2O [Example 24g, tert-butyl ((1S,2R,4r,7S)-1-hydroxy-2-((S)-5H-imidazo[5,1-a]isoindol-5-yl)spiro[3.5]nonan-7-yl)carbamate]
8 | 14000 | 5000 | CC(C)(C)OC(=O)N[C@H]1CC[C@@]2(CC1)C[C@H](C1c3ccccc3-c3cncn31)[C@H]2O (stereo partly drawn) [Example 24k, tert-butyl ((1S,2S,4s,7R)-1-hydroxy-2-((S)-5H-imidazo[5,1-a]isoindol-5-yl)spiro[3.5]nonan-7-yl)carbamate]

More lines, now with the values behind:

Row | SMILES | EC50 [1] [nM] | EC50 [2] [nM]
9 | CS(=O)(=O)N1CC2(CC(C3c4ccccc4-c4cncn43)C2O)C1 (centres unmarked) [compound 5, 6-(5H-imidazo[1,5-b]isoindol-5-yl)-2-methylsulfonyl-2-azaspiro[3.3]heptan-7-ol] | 230 | 460
10 | Cn1cc(S(=O)(=O)N2CCC3(CC2)CC(C2c4ccccc4-c4cncn42)C3O)cn1 (centres unmarked) [compound 26, 2-(5H-imidazo[1,5-b]isoindol-5-yl)-7-(1-methylpyrazol-4-yl)sulfonyl-7-azaspiro[3.5]nonan-3-ol] | 220 | 110
11 | Cc1nn(C)c(C)c1S(=O)(=O)N1CCC2(CC1)CC(C1c3ccccc3-c3cncn31)C2O (centres unmarked) [compound 27, 2-(5H-imidazo[1,5-b]isoindol-5-yl)-7-(1,3,5-trimethylpyrazol-4-yl)sulfonyl-7-azaspiro[3.5]nonan-3-ol] | 140 | 30
12 | CC(C)S(=O)(=O)N1CCC2(CC1)C[C@@H]([C@H]1c3ccccc3-c3cncn31)[C@H]2O [compound 29, 2-(5H-imidazo[1,5-b]isoindol-5-yl)-7-isopropylsulfonyl-7-azaspiro[3.5]nonan-3-ol] | 240 | 59
13 | Cc1nc(S(=O)(=O)N2CCC3(CC2)C[C@@H]([C@H]2c4ccccc4-c4cncn42)[C@H]3O)cn1C [compound 30] | 490 | 320
14 | Cc1noc(C)c1S(=O)(=O)N1CCC2(CC1)C[C@@H]([C@H]1c3ccccc3-c3cncn31)[C@H]2O [compound 31] | 2200 | 150
15 | Cc1ccncc1S(=O)(=O)N1CCC2(CC1)C[C@@H]([C@H]1c3ccccc3-c3cncn31)[C@H]2O [compound 32, (1R,2S)-2-((S)-5H-imidazo[5,1-a]isoindol-5-yl)-7-((4-methylpyridin-3-yl)sulfonyl)-7-azaspiro[3.5]nonan-1-ol] | 300 | 49
16 | O=C(CCc1cccnc1)N1CCC2(CC1)CC(C1c3ccccc3-c3cncn31)C2O (centres unmarked) [compound 33, 1-[3-hydroxy-2-(5H-imidazo[1,5-b]isoindol-5-yl)-7-azaspiro[3.5]nonan-7-yl]-3-(3-pyridyl)propan-1-one] | 840 | 490
17 | CC(=O)N(C)c1ccc(S(=O)(=O)N2CCC3(CC2)C[C@@H]([C@H]2c4ccccc4-c4cncn42)[C@H]3O)cc1 [compound 34, N-[4-[[3-hydroxy-2-(5H-imidazo[1,5-b]isoindol-5-yl)-7-azaspiro[3.5]nonan-7-yl]sulfonyl]phenyl]-N-methyl-acetamide] | 480 | 32
18 | CC(=O)N1CCC(S(=O)(=O)N2CCC3(CC2)CC(C2c4ccccc4-c4cncn42)C3O)CC1 (centres unmarked) [compound 35, 1-[4-[[3-hydroxy-2-(5H-imidazo[1,5-b]isoindol-5-yl)-7-azaspiro[3.5]nonan-7-yl]sulfonyl]-1-piperidyl]ethanone] | 460 | 140
19 | O=S(=O)(C1CCC1)N1CCC2(CC1)C[C@@H]([C@H]1c3ccccc3-c3cncn31)[C@H]2O [compound 36, 7-cyclobutylsulfonyl-2-(5H-imidazo[1,5-b]isoindol-5-yl)-7-azaspiro[3.5]nonan-3-ol] | 150 | 35
20 | CN1C(=O)Cc2cc(S(=O)(=O)N3CCC4(CC3)CC(C3c5ccccc5-c5cncn53)C4O)ccc21 (centres unmarked) [compound 37, 5-[[3-hydroxy-2-(5H-imidazo[1,5-b]isoindol-5-yl)-7-azaspiro[3.5]nonan-7-yl]sulfonyl]-1-methyl-indolin-2-one] | 1100 | 230
21 | O=C(c1cnn2c1OCCC2)N1CCC2(CC1)CC(C1c3ccccc3-c3cncn31)C2O (centres unmarked) [compound 38, 6,7-dihydro-5H-pyrazolo[5,1-b][1,3]oxazin-3-yl-[3-hydroxy-2-(5H-imidazo[1,5-b]isoindol-5-yl)-7-azaspiro[3.5]nonan-7-yl]methanone] | 2300 | 630
22 | O=C(CN1CCCCC1=O)N1CCC2(CC1)CC(C1c3ccccc3-c3cncn31)C2O (centres unmarked) [compound 39, 1-[2-[3-hydroxy-2-(5H-imidazo[1,5-b]isoindol-5-yl)-7-azaspiro[3.5]nonan-7-yl]-2-oxo-ethyl]piperidin-2-one] | 3900 | 3300
23 | CN1CCC(C(=O)N2CCC3(CC2)CC(C2c4ccccc4-c4cncn42)C3O)CC1=O (centres unmarked) [compound 40, 4-[3-hydroxy-2-(5H-imidazo[1,5-b]isoindol-5-yl)-7-azaspiro[3.5]nonane-7-carbonyl]-1-methyl-piperidin-2-one] | 9200 | 7000
24 | CC(C(=O)N1CCC2(CC1)C[C@@H]([C@H]1c3ccccc3-c3cncn31)[C@H]2O)n1cncn1 (some centres unmarked) [compound 41, 1-[3-hydroxy-2-(5H-imidazo[1,5-b]isoindol-5-yl)-7-azaspiro[3.5]nonan-7-yl]-2-(1,2,4-triazol-1-yl)propan-1-one] | 3400 | 1500
25 | CC(NC=O)C(=O)N1CCC2(CC1)CC(C1c3ccccc3-c3cncn31)C2O (centres unmarked) [compound 42, N-[2-[3-hydroxy-2-(5H-imidazo[1,5-b]isoindol-5-yl)-7-azaspiro[3.5]nonan-7-yl]-1-methyl-2-oxo-ethyl]formamide] | 4100 | 1100
26 | O=C(C1CC1)N1CCC2(CC1)CC(C1c3ccccc3-c3cncn31)C2O (centres unmarked) [compound 43, cyclopropyl-[3-hydroxy-2-(5H-imidazo[1,5-b]isoindol-5-yl)-7-azaspiro[3.5]nonan-7-yl]methanone] | 850 | 360
27 | Cn1ccc(S(=O)(=O)N2CCC3(CC2)CC(C2c4ccccc4-c4cncn42)C3O)n1 (centres unmarked) [compound 44, 2-(5H-imidazo[1,5-b]isoindol-5-yl)-7-(1-methylpyrazol-3-yl)sulfonyl-7-azaspiro[3.5]nonan-3-ol] | 280 | 82
28 | O=C(C1CCOCC1)N1CCC2(CC1)C[C@@H]([C@H]1c3ccccc3-c3cncn31)[C@H]2O [compound 45, [3-hydroxy-2-(5H-imidazo[1,5-b]isoindol-5-yl)-7-azaspiro[3.5]nonan-7-yl]-tetrahydropyran-4-yl-methanone] | 2100 | 2400
29 | O=C(C1CCOC1)N1CCC2(CC1)C[C@@H]([C@H]1c3ccccc3-c3cncn31)[C@H]2O (some centres unmarked) [compound 46, [3-hydroxy-2-(5H-imidazo[1,5-b]isoindol-5-yl)-7-azaspiro[3.5]nonan-7-yl]-tetrahydrofuran-3-yl-methanone] | 2400 | 2000
30 | COCCC(=O)N1CCC2(CC1)C[C@@H]([C@H]1c3ccccc3-c3cncn31)[C@H]2O [compound 47, 1-[3-hydroxy-2-(5H-imidazo[1,5-b]isoindol-5-yl)-7-azaspiro[3.5]nonan-7-yl]-3-methoxy-propan-1-one] | 850 | 850
31 | O=C(C1CCC1)N1CCC2(CC1)C[C@@H]([C@H]1c3ccccc3-c3cncn31)[C@H]2O [compound 48, cyclobutyl-[3-hydroxy-2-(5H-imidazo[1,5-b]isoindol-5-yl)-7-azaspiro[3.5]nonan-7-yl]methanone] | 730 | 350
